Where two headings read alike, the source gives them in different places.
Assays:
IRAK4 enzyme = IRAK4 enzyme (Homo sapiens (Human), UniProt Q9NWZ3); experiment: biochemical; assay type: biochemical; details: IRAK4 enzyme, 500 μM ATP
TNFα = experiment: cells; assay type: cell-based, human; details: LPS-stimulated human monocytes, read-out: EC50 TNF
[1] = Homo sapiens, Monocyte, TNFα content
[2] = Homo sapiens, Monocyte, TNFα by TR-FRET

IRAK4 enzyme, sequence (Q9NWZ3 whole entry): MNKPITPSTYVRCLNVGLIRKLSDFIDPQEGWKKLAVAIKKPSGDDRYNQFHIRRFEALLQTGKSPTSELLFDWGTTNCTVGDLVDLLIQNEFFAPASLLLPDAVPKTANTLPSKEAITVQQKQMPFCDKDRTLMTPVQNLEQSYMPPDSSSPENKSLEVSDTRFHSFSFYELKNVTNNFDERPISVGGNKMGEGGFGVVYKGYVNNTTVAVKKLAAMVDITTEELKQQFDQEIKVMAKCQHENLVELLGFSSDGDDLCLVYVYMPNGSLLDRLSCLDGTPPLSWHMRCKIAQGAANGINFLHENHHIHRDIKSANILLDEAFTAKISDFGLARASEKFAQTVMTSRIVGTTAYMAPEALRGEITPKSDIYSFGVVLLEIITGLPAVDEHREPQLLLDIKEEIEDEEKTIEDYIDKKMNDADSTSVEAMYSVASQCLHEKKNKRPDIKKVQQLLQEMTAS

Compound	IC50 (IRAK4 enzyme; TR-FRET (HTRF)) [µM]	EC50 (TNFα; [1]) [µM]	IC50 (IRAK4 enzyme; TR-FRET) [µM]	EC50 (TNFα; [2]) [µM]	EC50 (TNFα; TNFα content) [µM]
CC(C)(O)[C@H](F)CNC(=O)c1cnc(-c2ccc3cc(C#N)cnn23)cc1Nc1ncc(C#N)cn1 [Example 420, (R)-4-((5-cyanopyrimidin-2-yl)amino)-6-(3-cyano-pyrrolo[1,2-b]pyridazin-7-yl)-N-(2-fluoro-3-hydroxy-3-methylbutyl)nicotinamide]	0.006	0.122	–	–	–
COc1cnc(Nc2cc(-c3ccc4cc(C#N)cnn34)ncc2C(=O)NC[C@@H](F)C(C)(C)O)cn1 [Example 840, (R)-6-(3-cyanopyrrolo[1,2-b]pyridazin-7-yl)-N-(2-fluoro-3-hydroxy-3-methylbutyl)-4-((5-methoxypyrazin-2-yl)amino)nicotinamide]	–	–	< 0.001	0.017	–
CN(C)C(=O)CNC(=O)c1cnc(-c2ccc3cc(C#N)cnn23)cc1NC12CCC(O)(CC1)CC2 [Example 333, 6-(3-cyanopyrrolo[1,2-b]pyridazin-7-yl)-N-(2-(dimethylamino)-2-oxo-ethyl)-4-((4-hydroxy-bicyclo[2.2.2]octan-1-yl)amino)nicotinamide]	–	0.087	< 0.001	–	–
COC(=O)NC1CC2(C1)CC(Nc1cc(-c3ccc4cc(C#N)cnn34)ncc1C(=O)NC[C@@H](F)C(C)(C)O)C2 (single isomer, unassigned) [Example 757]	< 0.001	–	–	–	0.012
CC(C)(O)[C@H](F)CNC(=O)c1cnc(-c2ccc3cc(C#N)cnn23)cc1Nc1cnn([C@H]2CCOC2)c1 [Example 237, 6-(3-cyanopyrrolo[1,2-b]pyridazin-7-yl)-N-((R)-2-fluoro-3-hydroxy-3-methylbutyl)-4-((1-((S)-tetrahydrofuran-3-yl)-1H-pyrazol-4-yl)amino) nicotinamide]	–	0.023	0.001	–	–
CC(C)(CCNC(=O)c1cnc(-c2ccc3cc(C#N)cnn23)cc1NC12CCC(O)(CC1)CC2)NC(=O)OC(C)(C)C [Example 347, tert-butyl (4-(6-(3-cyanopyrrolo[1,2-b]pyridazin-7-yl)-4-((4-hydroxybicyclo[2.2.2]octan-1-yl)amino)nicotinamido)-2-methyl-butan-2-yl)carbamate]	–	0.045	0.002	–	–
CC(C)(O)[C@H](F)CNC(=O)c1cnc(-c2ccc3cc(C#N)cnn23)cc1N[C@H]1C[C@H](CNC(=O)C2CC2(F)F)C1 (stereo partly drawn) [Example 695, 6-(3-cyanopyrrolo[1,2-b]pyridazin-7-yl)-4-(((1R,3R)-3-(((R)-2,2-difluorocyclopropane-1-carboxamido)methyl)cyclobutyl)amino)-N-((R)-2-fluoro-3-hydroxy-3-methylbutyl)nicotinamide]	< 0.001	0.015	–	–	–
CC(C)(O)[C@H](F)CNC(=O)c1cnc(-c2ccc3cc(C#N)cnn23)cc1N[C@H]1C[C@H](CNC(=O)C2CC2)C1 [Example 534, 6-(3-cyanopyrrolo[1,2-b]pyridazin-7-yl)-4-(((1r,3R)-3-(cyclopropane-carboxamidomethyl)cyclo-butyl)amino)-N-((R)-2-fluoro-3-hydroxy-3-methyl-butyl)nicotinamide]	< 0.001	0.026	–	–	–
CC(=O)NC[C@H]1C[C@H](Nc2cc(-c3ccc4cc(C#N)cnn34)ncc2C(=O)NC[C@@H](F)C(C)(C)O)C1 [Example 544, 4-(((1r,3R)-3-(acetamidomethyl)cyclobutyl)amino)-6-(3-cyanopyrrolo[1,2-b]pyridazin-7-yl)-N-((R)-2-fluoro-3-hydroxy-3-methylbutyl)nicotinamide]	0.001	0.081	–	–	–
COC(=O)NC[C@H]1C[C@H](Nc2cc(-c3ccc4cc(C#N)cnn34)ncc2C(=O)NCC(=O)N2CC(F)(F)C2)C1 [Example 952, methyl (((1r,3r)-3-((2-(3-cyanopyrrolo[1,2-b]pyridazin-7-yl)-5-((2-(3,3-difluoroazetidin-1-yl)-2-oxoethyl)carbamoyl)pyridin-4-yl)amino)cyclo-butyl)methyl)carbamate]	–	–	< 0.001	0.062	–

Source: patent US10336762B2 (priority 2017, dated 2019)
